Here are results for 27 molecules from patent US20230135894A1, “MK2 DEGRADERS AND USES THEREOF” (Kymera Therapeutics, Inc., priority 2021, published 2023).

Assay [1] deals with T1, MK2 (Homo sapiens, UniProt P49137). Briefly: MK2 degradation in human THP-1 monocytic cells (MSD, 24 h). Type of assay: cell-based. Also noted: endogenous in cells; key to MK2 MSD THP-1 degradation 24 h GMean External Abs DC50: A (<0.001 μM); B (0.001-0.01 μM); C (0.01-0.1 μM); D (>0.1 μM); —: “-”=not tested or inactive. Conditions: for Dmax: THP-1, THP-1 cells; for DC50: read-out: MK2 MSD THP-1 degradation 24 h GMean External Abs DC50. The procedure, abridged:
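THP-1 cells (200,000/well) treated 24 h at 37 °C with compound dilution series (up to 10 points, 0.1% DMSO). MK2 in RIPA lysates quantified by MSD sandwich immunoassay. DC50 from 4-parameter logistic fit, DMSO-treated cells as high and lysis buffer as low signal.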

The target of assay [2] is T1, MK2. Briefly: MK2 degradation in human SW1353 cells (MSD, 24 h). The conditions noted are these: for Dmax: read-out: MK2 MSD SW 1353 24 h Dmax %; for DC50: read-out: MK2 MSD SW1353 degradation 24 h GMean External Abs DC50. Type of assay: cell-based. On the set-up: endogenous in cells; host or cells: SW-1353 (ATCC HTB-94); key to MK2 MSD SW1353 degradation 24 h GMean External Abs DC50: A (<0.001 μM); B (0.001-0.01 μM); C (0.01-0.1 μM); D (>0.1 μM); —: “-”=not tested or inactive; key to MK2 MSD SW 1353 24 h Dmax %: —: “-”=not tested or inactive. The procedure, abridged: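 SW1353 chondrosarcoma cells were treated with up to 10-point serial dilutions (0.1% DMSO) for 24 h at 37 °C, then lysed in RIPA buffer. MK2 levels were quantified by MSD sandwich immunoassay; DC50 came from a 4-parameter logistic fit normalised to DMSO-treated cells (high) and lysis buffer (low).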

What is called Dmax is the greatest extent of degradation seen. One may read the DC50 as the concentration giving 50% degradation.

T1 sequence (P49137 whole entry): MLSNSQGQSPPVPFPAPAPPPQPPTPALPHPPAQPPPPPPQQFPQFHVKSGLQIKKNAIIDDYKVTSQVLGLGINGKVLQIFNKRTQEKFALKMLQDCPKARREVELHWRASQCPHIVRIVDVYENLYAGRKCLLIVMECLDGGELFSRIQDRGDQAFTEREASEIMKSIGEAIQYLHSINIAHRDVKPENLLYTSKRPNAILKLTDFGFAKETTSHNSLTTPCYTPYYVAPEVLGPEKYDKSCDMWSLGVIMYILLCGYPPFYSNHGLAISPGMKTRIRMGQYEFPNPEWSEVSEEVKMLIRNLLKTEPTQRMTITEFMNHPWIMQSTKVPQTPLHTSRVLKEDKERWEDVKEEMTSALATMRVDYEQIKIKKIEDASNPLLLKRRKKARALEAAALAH

In the case of `Cn1c(=O)n(C2CCC(=O)NC2=O)c2ccc(N3CC(CN4CCN(c5ccc(-c6cc(-c7cc8c([nH]7)C7(CCCC7)CNC8=O)ccn6)cc5)CC4)C3)cc21` (stereo not shown) [Compound I-415], the greatest degradation seen (Dmax) in assay [1] and in assay [2] was more than 75% in each case. The DC50 in assay [1] (THP-1 cells) and in assay [2] was less than 1 nM in each case.
Turning to `COc1cc(N2CCN(CC3CCN(c4ccc5c(c4)n(C)c(=O)n5C4CCC(=O)NC4=O)CC3)CC2)cc(-n2cc(-c3ccc4c(c3)CCNC4=O)c(N)n2)c1` (stereo not shown) [Compound I-459], the Dmax in assay [1] and in assay [2] was less than 50% in each case. Moreover, the DC50 in assay [1] (THP-1 cells) and in assay [2] was more than 100 nM in each case.
`Cn1c(=O)n(C2CCC(=O)NC2=O)c2cccc(CCCN3CCN(c4ccc(-c5cc(-c6cc7c([nH]6)C6(CC6)CNC7=O)ccn5)cn4)CC3)c21` (stereo not shown) [Compound I-199] showed a Dmax in assay [1] of more than 75%. In addition, in assay [1] (THP-1 cells), the DC50 is 1 to 10 nM. Moreover, in assay [2], the “MK2 MSD SW1353 degradation 24 h GMean External Abs DC50” value is on record as “—” and the Dmax was more than 75%.
In the case of `C[C@@H]1Cc2[nH]c(-c3ccnc(-c4ccc(N5CCC(CN6CCC(c7cccc8c7n(C)c(=O)n8C7CCC(=O)NC7=O)CC6)CC5)cc4)c3)cc2C(=O)N1` (stereo partly shown) [Compound I-248], the Dmax in assay [1] and in assay [2] was more than 75% throughout. The 50% degradation concentration (DC50) in assay [1] (THP-1 cells) and in assay [2] was 1 to 10 nM each time.
For the molecule `C[C@@H]1CN(C)c2c(sc3ccc4nc(-c5ccc(N6CCN(CC7CCN(c8cccc9c8n(C)c(=O)n9C8CCC(=O)NC8=O)CC7)CC6)cc5)ccc4c23)C(=O)N1` (stereo partly shown) [Compound I-274], the Dmax in assay [1] and in assay [2] was more than 75% in each case. Moreover, the DC50 in assay [1] (THP-1 cells) and in assay [2] was 10 to 100 nM each time.
On to `Cn1c(=O)n(C2CCC(=O)NC2=O)c2ccc(N3CCC4(CC3)CC(N3CCN(c5cc(-c6cc7c([nH]6)C6(CC6)CNC7=O)ccn5)CC3)C4)cc21` (stereo not shown) [Compound I-408], for which the maximal degradation (Dmax) in assay [1] was less than 50%. Besides, the half-maximal degradation concentration (DC50) in assay [1] (THP-1 cells) was more than 100 nM. In addition, in assay [2], the “MK2 MSD SW 1353 24 h Dmax %” value is recorded as “—” and the 50% degradation concentration (DC50) was more than 100 nM.
As for `C[C@@H]1CNc2c(sc3ccc4nc(N5CCC(CN6CC7(C6)CN(c6ccc8c(c6)n(C)c(=O)n8C6CCC(=O)NC6=O)C7)CC5)ccc4c23)C(=O)N1` (stereo partly shown) [Compound I-439], the maximal degradation (Dmax) in assay [1] and in assay [2] was more than 75% each time. Besides, the 50% degradation concentration (DC50) is 1 to 10 nM in assay [1] (THP-1 cells) and less than 1 nM in assay [2].
As for `C[C@@H]1CNc2c(sc3ccc4nc(N5CCC(N6CCC7(CC6)CN(c6ccc8c(c6)n(C)c(=O)n8C6CCC(=O)NC6=O)C7)CC5)ccc4c23)C(=O)N1` (stereo partly shown) [Compound I-402], the greatest degradation seen (Dmax) is 50 to 75% in assay [1] and more than 75% in assay [2]. In addition, the 50% degradation concentration (DC50) in assay [1] (THP-1 cells) is 1 to 10 nM; in assay [2], less than 1 nM.
Turning to `CCc1cc(-c2cc(-c3cc4c([nH]3)CCNC4=O)ccn2)cc(CC)c1N1CCN(CC2CCN(c3ccc4c(c3)n(C)c(=O)n4C3CCC(=O)NC3=O)CC2)CC1` (stereo not shown) [Compound I-447], the results for the maximal degradation (Dmax) in assay [1] and in assay [2] were less than 50% and 50 to 75%, respectively. Also, the DC50 was more than 100 nM in assay [1] (THP-1 cells) and 10 to 100 nM in assay [2].
As to `Cc1cc(N2CCN(CCCc3ccc4c(c3)n(C)c(=O)n4C3CCC(=O)NC3=O)CC2)ccc1-c1ccc2c(ccc3sc4c(c32)NC[C@@H](C)NC4=O)n1` (stereo partly shown) [Compound I-260], the greatest degradation seen (Dmax) in assay [1] was 50 to 75%; in assay [2] it was more than 75%. Besides, the “MK2 MSD THP-1 degradation 24 h GMean External Abs DC50” value in assay [1] (THP-1 cells) is reported as “—”. Further, the half-maximal degradation concentration (DC50) in assay [2] is less than 1 nM.
Take `Cc1cc(N2CCN(CCCc3ccc4c(c3)n(C)c(=O)n4C3CCC(=O)NC3=O)CC2)ncc1-c1ccc2c(ccc3sc4c(c32)NC[C@@H](C)NC4=O)n1` (stereo partly shown) [Compound I-249]: the greatest degradation seen (Dmax) in assay [1] and in assay [2] was 50 to 75% each time. For the same molecule, the DC50 in assay [1] (THP-1 cells) was 1 to 10 nM; in assay [2] it was less than 1 nM.
Take `Cn1c(=O)n(C2CCC(=O)NC2=O)c2ccc(N3CCC(CN4CCN(c5ccc(-c6cc(-c7cc8c([nH]7)CCNC8=O)ccn6)c(F)c5)CC4)CC3)cc21` (stereo not shown) [Compound I-226]: the greatest degradation seen (Dmax) in assay [1] and in assay [2] was more than 75% in each case. Besides, the 50% degradation concentration (DC50) in assay [1] (THP-1 cells) and in assay [2] was less than 1 nM each time.
Consider `C[C@@H]1CNc2c(sc3ccc4nc(N5CCC(N6CCC7(CCN(c8ccc9c(c8)n(C)c(=O)n9C8CCC(=O)NC8=O)CC7)CC6)CC5)ccc4c23)C(=O)N1` (stereo partly shown) [Compound I-395], for which the Dmax in assay [1] and in assay [2] was more than 75% in each case. The figures for the 50% degradation concentration (DC50) in assay [1] (THP-1 cells) and in assay [2] were 1 to 10 nM and less than 1 nM, respectively.
For the molecule `C[C@@H]1CNc2c(sc3ccc4nc(N5CCCN(CCC6CCN(c7ccc8c(c7)n(C)c(=O)n8C7CCC(=O)NC7=O)CC6)CC5)ccc4c23)C(=O)N1` (stereo partly shown) [Compound I-444], the Dmax in assay [1] was 50 to 75%; in assay [2], more than 75%. In addition, the DC50 in assay [1] (THP-1 cells) and in assay [2] was 1 to 10 nM throughout.
As for `Cn1c(=O)n(C2CCC(=O)NC2=O)c2cccc(CCN3CCN(c4ccc(-c5nccc(-c6cc7c([nH]6)C6(CC6)CNC7=O)c5F)cc4)CC3)c21` (stereo not shown) [Compound I-431], the greatest degradation seen (Dmax) was less than 50% in assay [1] and 50 to 75% in assay [2]. In addition, the 50% degradation concentration (DC50) was more than 100 nM in assay [1] (THP-1 cells) and 10 to 100 nM in assay [2].
`Cn1c(=O)n(C2CCC(=O)NC2=O)c2cccc(N3CCC(CN4CCN(c5ccc(-c6cc(-c7cc8c([nH]7)CCNC8=O)ccn6)cn5)CC4)CC3)c21` (stereo not shown) [Compound I-138]: the Dmax in assay [1] and in assay [2] was more than 75% throughout. Besides, the 50% degradation concentration (DC50) in assay [1] (THP-1 cells) and in assay [2] was less than 1 nM each time.
Turning to `COc1cc(-c2ccc3c(ccc4sc5c(c43)NC[C@@H](C)NC5=O)n2)c(F)cc1N1CCN(CC2CCN(c3ccc4c(c3)n(C)c(=O)n4C3CCC(=O)NC3=O)CC2)CC1` (stereo partly shown) [Compound I-180], the greatest degradation seen (Dmax) in assay [1] and in assay [2] was more than 75% in each case.
Turning to `C[C@@H]1CNc2c(sc3ccc4nc(-c5cccc(N6CCC(CN7CCN(CCc8cccc9c8n(C)c(=O)n9C8CCC(=O)NC8=O)CC7)CC6)c5)ccc4c23)C(=O)N1` (stereo partly shown) [Compound I-107], the Dmax in assay [1] and in assay [2] was more than 75% each time. In addition, the DC50 is less than 1 nM in assay [1] (THP-1 cells) and 1 to 10 nM in assay [2].
`C[C@@H]1CNc2c(sc3ccc4nc(N5CCN(C6CC7(CCN(c8cccc9c8n(C)c(=O)n9C8CCC(=O)NC8=O)CC7)C6)CC5)ccc4c23)C(=O)N1` (stereo partly shown) [Compound I-443]: the Dmax in assay [1] and in assay [2] was more than 75% each time. The half-maximal degradation concentration (DC50) in assay [1] (THP-1 cells) and in assay [2] was less than 1 nM throughout.
With `CN1CC2(CNC(=O)c3c2[nH]c2c3CCc3cnc(-c4ccc(CN5CCC(OCC#Cc6ccc7c(c6)n(C)c(=O)n7C6CCC(=O)NC6=O)CC5)cc4F)cc3-2)C1` (stereo not shown) [Compound I-1], the Dmax in assay [1] and in assay [2] was less than 50% throughout. The DC50 in assay [1] (THP-1 cells) and in assay [2] was more than 100 nM throughout.
Consider `CN1CC2(CNC(=O)c3c2[nH]c2c3CCc3cnc(-c4ccc(CN5CCC(OCC#Cc6cccc7c6n(C)c(=O)n7C6CCC(=O)NC6=O)CC5)cc4F)cc3-2)C1` (stereo not shown) [Compound I-2], for which the Dmax in assay [1] and in assay [2] was less than 50% in each case. For the same molecule, the half-maximal degradation concentration (DC50) in assay [1] (THP-1 cells) and in assay [2] was more than 100 nM throughout.
Regarding `C[C@@H]1CNc2c(sc3ccc4nc(-c5ccc(N6CCN(CC7CCN(c8cccc9c8n(C)c(=O)n9C8CCC(=O)NC8=O)CC7)CC6)cc5)ccc4c23)C(=O)N1` (stereo partly shown) [Compound I-126], the Dmax in assay [1] and in assay [2] was more than 75% throughout. In addition, the DC50 in assay [1] (THP-1 cells) and in assay [2] was 1 to 10 nM throughout.
Turning to `C[C@@H]1CNc2c(sc3ccc4nc(-c5ccc(N6CCN(CCC7CCN(c8cccc9c8n(C)c(=O)n9C8CCC(=O)NC8=O)CC7)CC6)cc5)ccc4c23)C(=O)N1` (stereo partly shown) [Compound I-127], the Dmax in assay [1] and in assay [2] was more than 75% each time. Moreover, the 50% degradation concentration (DC50) in assay [1] (THP-1 cells) and in assay [2] was 1 to 10 nM in each case.
For `Cc1cc(N2CCC(CN3CCC(c4ccc5c(c4)n(C)c(=O)n5C4CCC(=O)NC4=O)CC3)CC2)ccc1-c1ccc2c(ccc3sc4c(c32)NC[C@@H](C)NC4=O)n1` (stereo partly shown) [Compound I-291], the maximal degradation (Dmax) in assay [1] and in assay [2] was more than 75% throughout. Also, the 50% degradation concentration (DC50) in assay [1] (THP-1 cells) and in assay [2] was less than 1 nM each time.
For `C[C@@H]1CNc2c(sc3ccc4nc(-c5cccc(N6CCN(CCCc7ccc8c(c7)n(C)c(=O)n8C7CCC(=O)NC7=O)CC6)c5)ccc4c23)C(=O)N1` (stereo partly shown) [Compound I-118], the Dmax in assay [1] and in assay [2] was more than 75% throughout. Also, the 50% degradation concentration (DC50) in assay [1] (THP-1 cells) and in assay [2] was less than 1 nM throughout.
With `Cn1c(=O)n(C2CCC(=O)NC2=O)c2ccc(N3CCC(CN4CCN(c5ccc(-c6cc(-c7cc8c([nH]7)C7(CCCC7)CNC8=O)ccn6)cc5)CC4)CC3)cc21` (stereo not shown) [Compound I-192], the Dmax in assay [1] and in assay [2] was more than 75% throughout. The DC50 in assay [1] (THP-1 cells) and in assay [2] was less than 1 nM in each case.
Regarding `Cn1c(=O)n(C2CCC(=O)NC2=O)c2ccc(N3CC(CN4CCN(c5ccc(-c6cc(-c7cc8c([nH]7)C7(CC7)CNC8=O)ccn6)c(F)c5)CC4)C3)cc21` (stereo not shown) [Compound I-425], the greatest degradation seen (Dmax) in assay [1] and in assay [2] was more than 75% each time. The 50% degradation concentration (DC50) in assay [1] (THP-1 cells) and in assay [2] was less than 1 nM in each case.
